Laboratory results as given in ChEMBL document CHEMBL1909046, “DrugMatrix in vitro pharmacology data”.

Columns and labels:
[1] = DRUGMATRIX: Leukotriene, BLT (LTB4) radioligand binding (ligand: [3H]LTB4); format: cell membranes, Membrane; conditions: u-937; Not Active = under 50% inhibition at 10 µM
[2] = biological target: T1, C-X-C chemokine receptor type 2 (Homo sapiens, UniProt P25025); format: cell membranes, Membrane; conditions: cho-k1; also: in other assays of this panel Not Active means under 50% inhibition at 10 µM
T1 sequence (P25025 whole entry): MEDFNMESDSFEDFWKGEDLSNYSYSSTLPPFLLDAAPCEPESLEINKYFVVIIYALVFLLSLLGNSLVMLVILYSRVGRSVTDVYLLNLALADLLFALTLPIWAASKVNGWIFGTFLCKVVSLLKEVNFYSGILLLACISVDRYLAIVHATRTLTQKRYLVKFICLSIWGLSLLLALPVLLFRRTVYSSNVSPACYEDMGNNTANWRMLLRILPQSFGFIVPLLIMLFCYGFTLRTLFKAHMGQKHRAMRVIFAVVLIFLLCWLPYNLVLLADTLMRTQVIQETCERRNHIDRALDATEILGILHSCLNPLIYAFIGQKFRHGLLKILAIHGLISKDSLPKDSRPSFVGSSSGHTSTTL

[3] = biological target: Estrogen receptor beta (Homo sapiens, UniProt Q92731); conditions: sf9; also: in other assays of this panel Not Active means under 50% inhibition at 10 µM
Chain of Estrogen receptor beta (Q92731 whole entry): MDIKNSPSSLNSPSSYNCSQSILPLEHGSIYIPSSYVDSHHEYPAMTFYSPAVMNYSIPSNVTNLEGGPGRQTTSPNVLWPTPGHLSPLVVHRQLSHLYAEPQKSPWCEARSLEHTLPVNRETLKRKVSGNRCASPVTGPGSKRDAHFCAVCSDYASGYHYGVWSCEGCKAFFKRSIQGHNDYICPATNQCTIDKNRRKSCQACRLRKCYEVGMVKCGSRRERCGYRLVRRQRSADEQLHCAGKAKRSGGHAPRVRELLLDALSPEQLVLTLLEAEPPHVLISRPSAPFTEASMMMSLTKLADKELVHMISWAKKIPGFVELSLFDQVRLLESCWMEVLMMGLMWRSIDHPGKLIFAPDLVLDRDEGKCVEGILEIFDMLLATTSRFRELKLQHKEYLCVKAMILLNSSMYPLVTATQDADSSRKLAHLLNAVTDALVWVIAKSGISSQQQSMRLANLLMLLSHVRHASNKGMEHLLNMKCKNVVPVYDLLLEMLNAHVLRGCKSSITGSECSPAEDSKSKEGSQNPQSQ

[4] = DRUGMATRIX: Glutamate, Kainate radioligand binding (ligand: [3H] Kainic acid); format: cell membranes, Rattus norvegicus, Wistar, Brain, Membrane; conditions: Not Active = under 50% inhibition at 10 µM
[5] = biological target: Vascular endothelial growth factor receptor 1 (Homo sapiens, UniProt P17948); format: cell-based; conditions: huvec; also: in other assays of this panel Not Active means under 50% inhibition at 10 µM
Chain of Vascular endothelial growth factor receptor 1 (P17948 whole entry): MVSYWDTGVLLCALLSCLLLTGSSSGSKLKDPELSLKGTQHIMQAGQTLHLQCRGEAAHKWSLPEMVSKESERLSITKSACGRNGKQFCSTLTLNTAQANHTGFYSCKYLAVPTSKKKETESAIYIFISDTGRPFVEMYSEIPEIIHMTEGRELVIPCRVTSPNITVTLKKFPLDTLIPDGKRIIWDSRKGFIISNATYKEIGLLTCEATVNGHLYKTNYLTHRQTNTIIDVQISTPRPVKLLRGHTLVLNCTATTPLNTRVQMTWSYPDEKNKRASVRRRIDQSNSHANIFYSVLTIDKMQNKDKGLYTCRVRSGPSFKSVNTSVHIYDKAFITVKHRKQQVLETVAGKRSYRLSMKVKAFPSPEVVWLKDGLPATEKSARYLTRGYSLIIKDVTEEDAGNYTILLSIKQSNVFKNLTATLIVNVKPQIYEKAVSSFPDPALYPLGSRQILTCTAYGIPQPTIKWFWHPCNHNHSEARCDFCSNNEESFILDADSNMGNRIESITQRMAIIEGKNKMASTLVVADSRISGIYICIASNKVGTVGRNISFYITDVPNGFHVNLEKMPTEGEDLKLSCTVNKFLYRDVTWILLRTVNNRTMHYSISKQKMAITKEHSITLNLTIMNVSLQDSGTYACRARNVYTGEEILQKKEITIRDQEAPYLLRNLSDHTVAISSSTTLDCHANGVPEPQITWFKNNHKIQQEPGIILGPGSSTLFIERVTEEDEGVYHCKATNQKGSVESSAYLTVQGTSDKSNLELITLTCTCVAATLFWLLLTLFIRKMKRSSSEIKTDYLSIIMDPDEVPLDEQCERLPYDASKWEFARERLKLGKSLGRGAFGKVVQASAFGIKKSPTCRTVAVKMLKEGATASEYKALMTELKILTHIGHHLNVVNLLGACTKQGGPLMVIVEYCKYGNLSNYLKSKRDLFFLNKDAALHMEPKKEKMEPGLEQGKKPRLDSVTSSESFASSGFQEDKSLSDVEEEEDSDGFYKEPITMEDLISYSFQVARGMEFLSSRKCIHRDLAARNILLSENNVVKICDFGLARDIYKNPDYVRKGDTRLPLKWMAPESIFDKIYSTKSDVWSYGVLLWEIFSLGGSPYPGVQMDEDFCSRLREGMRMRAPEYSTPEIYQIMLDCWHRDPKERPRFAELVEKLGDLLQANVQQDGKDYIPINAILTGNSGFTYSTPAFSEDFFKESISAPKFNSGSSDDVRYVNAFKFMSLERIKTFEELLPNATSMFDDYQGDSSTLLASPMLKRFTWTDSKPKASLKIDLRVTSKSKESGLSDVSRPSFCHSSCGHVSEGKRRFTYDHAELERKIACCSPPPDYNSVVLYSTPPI

[6] = DRUGMATRIX: Phosphodiesterase PDE3 enzyme inhibition (substrate: [3H]cAMP + cAMP); format: tissue-based, Homo sapiens; conditions: platelet; Not Active = under 50% inhibition at 10 µM
[7] = biological target: C-C chemokine receptor type 2 (Homo sapiens, UniProt P41597); format: cell membranes, CHO-K1, Membrane; conditions: cho-k1; also: in other assays of this panel Not Active means under 50% inhibition at 10 µM
Chain of C-C chemokine receptor type 2 (P41597 whole entry): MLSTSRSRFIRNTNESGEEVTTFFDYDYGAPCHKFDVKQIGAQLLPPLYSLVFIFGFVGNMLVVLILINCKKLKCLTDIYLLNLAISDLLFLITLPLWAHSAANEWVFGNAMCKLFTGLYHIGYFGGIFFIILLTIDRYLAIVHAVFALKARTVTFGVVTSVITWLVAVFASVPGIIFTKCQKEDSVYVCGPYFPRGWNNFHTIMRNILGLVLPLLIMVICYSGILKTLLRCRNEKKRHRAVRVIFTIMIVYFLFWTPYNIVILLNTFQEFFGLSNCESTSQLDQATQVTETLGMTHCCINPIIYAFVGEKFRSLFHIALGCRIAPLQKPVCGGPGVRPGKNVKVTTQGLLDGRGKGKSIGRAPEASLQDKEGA

[8] = biological target: T2, Nitric oxide synthase, inducible (Mus musculus, UniProt P29477); set-up: species or system Escherichia coli
T2 sequence (P29477 whole entry): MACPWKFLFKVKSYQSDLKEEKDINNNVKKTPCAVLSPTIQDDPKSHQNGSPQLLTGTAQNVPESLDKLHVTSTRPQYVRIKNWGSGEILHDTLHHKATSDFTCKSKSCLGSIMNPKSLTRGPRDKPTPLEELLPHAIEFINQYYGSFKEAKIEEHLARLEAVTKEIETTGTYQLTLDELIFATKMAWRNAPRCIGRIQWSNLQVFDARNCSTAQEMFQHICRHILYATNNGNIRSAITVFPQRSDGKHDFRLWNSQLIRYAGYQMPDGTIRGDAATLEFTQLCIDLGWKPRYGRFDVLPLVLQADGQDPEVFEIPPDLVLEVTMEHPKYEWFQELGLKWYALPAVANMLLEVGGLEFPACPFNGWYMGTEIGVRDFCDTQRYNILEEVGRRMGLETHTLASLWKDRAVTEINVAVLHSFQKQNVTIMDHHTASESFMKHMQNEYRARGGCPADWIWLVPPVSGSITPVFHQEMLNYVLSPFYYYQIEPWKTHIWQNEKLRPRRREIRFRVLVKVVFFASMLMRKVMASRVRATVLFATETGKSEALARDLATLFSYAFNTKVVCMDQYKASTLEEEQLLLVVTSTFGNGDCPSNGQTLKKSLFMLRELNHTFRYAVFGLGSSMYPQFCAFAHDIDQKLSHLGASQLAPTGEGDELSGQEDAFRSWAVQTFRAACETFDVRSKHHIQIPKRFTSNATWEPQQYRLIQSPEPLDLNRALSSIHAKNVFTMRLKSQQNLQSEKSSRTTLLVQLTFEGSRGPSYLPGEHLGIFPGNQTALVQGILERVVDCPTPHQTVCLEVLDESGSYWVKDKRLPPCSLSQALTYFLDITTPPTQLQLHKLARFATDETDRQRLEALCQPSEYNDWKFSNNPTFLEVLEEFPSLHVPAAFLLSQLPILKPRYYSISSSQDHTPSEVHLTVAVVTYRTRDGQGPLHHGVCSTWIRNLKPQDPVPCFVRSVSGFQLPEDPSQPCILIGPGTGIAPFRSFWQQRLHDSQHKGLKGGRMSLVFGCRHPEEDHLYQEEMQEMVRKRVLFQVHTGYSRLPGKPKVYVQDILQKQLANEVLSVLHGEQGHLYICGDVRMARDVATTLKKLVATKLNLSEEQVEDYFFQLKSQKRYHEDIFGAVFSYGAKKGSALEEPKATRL

[9] = biological target: Cytochrome P450 2C9 (Homo sapiens, UniProt P11712); conditions: bti-tn-5b1-4; also: in other assays of this panel Not Active means under 50% inhibition at 10 µM
Chain of Cytochrome P450 2C9 (P11712 whole entry): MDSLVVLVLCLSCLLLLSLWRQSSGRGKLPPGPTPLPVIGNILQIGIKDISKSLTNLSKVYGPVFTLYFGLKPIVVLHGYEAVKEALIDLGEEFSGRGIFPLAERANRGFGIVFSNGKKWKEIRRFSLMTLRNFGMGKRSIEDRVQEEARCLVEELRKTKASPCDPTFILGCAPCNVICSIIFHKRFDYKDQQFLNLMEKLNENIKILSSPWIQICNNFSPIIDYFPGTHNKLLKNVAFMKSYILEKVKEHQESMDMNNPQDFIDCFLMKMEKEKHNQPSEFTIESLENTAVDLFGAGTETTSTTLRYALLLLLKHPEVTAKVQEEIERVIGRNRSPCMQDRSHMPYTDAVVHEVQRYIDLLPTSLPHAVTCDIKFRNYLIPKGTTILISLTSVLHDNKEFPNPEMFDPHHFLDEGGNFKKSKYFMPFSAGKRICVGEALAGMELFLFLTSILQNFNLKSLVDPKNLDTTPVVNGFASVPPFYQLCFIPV

Nc1nc2c(ncn2CCC(CO)CO)c(=O)[nH]1 [PENCICLOVIR]
Not Active: IC50 [1] | Ki [1] | IC50 [2] | IC50 [3] | IC50 [4] | Ki [4] | IC50 [5] | IC50 [6] | Ki [6] | IC50 [7] | IC50 [8] | IC50 [9] | Ki [9]

C=C(C)C1(O)OC(=O)C=C1OC (stereo not given) [PENICILLIC ACID]
Not Active: IC50 [1] | Ki [1] | IC50 [2] | IC50 [3] | IC50 [4] | Ki [4] | IC50 [5] | IC50 [6] | Ki [6] | IC50 [7] | IC50 [8] | IC50 [9] | Ki [9]

CCCN1C[C@H](CSC)C[C@@H]2c3cccc4[nH]cc(c34)C[C@H]21 [PERGOLIDE]
Not Active: IC50 [1] | Ki [1] | IC50 [2] | IC50 [3] | IC50 [4] | Ki [4] | IC50 [5] | IC50 [6] | Ki [6] | IC50 [7] | IC50 [8] | IC50 [9] | Ki [9]

C1CCC(C(CC2CCCCN2)C2CCCCC2)CC1 (stereo not given) [PERHEXILINE]
Not Active: IC50 [1] | Ki [1] | IC50 [2] | IC50 [3] | IC50 [4] | Ki [4] | IC50 [5] | IC50 [6] | Ki [6] | IC50 [7] | IC50 [8] | IC50 [9] | Ki [9]

CCOc1ccc(NC(C)=O)cc1 [PHENACETIN]
Not Active: IC50 [1] | Ki [1] | IC50 [2] | IC50 [3] | IC50 [4] | Ki [4] | IC50 [5] | IC50 [6] | Ki [6] | IC50 [7] | IC50 [8] | IC50 [9] | Ki [9]

Cc1ccc(N(CC2=NCCN2)c2cccc(O)c2)cc1 [PHENTOLAMINE]
Not Active: IC50 [1] | Ki [1] | IC50 [2] | IC50 [3] | IC50 [4] | Ki [4] | IC50 [5] | IC50 [6] | Ki [6] | IC50 [7] | IC50 [8] | IC50 [9] | Ki [9]

CNNCc1ccc(C(=O)NC(C)C)cc1 [PROCARBAZINE]
Not Active: IC50 [1] | Ki [1] | IC50 [2] | IC50 [3] | IC50 [4] | Ki [4] | IC50 [5] | IC50 [6] | Ki [6] | IC50 [7] | IC50 [8] | IC50 [9] | Ki [9]

CADMIUM ACETATE
Not Active: IC50 [1] | Ki [1] | IC50 [2] | Ki [2] | IC50 [3] | Ki [3] | IC50 [4] | Ki [4] | IC50 [5] | Ki [5] | IC50 [6] | Ki [6] | IC50 [7] | Ki [7] | IC50 [8] | Ki [8] | IC50 [9] | Ki [9]

LEAD (II) ACETATE
Not Active: IC50 [1] | Ki [1] | IC50 [2] | Ki [2] | IC50 [3] | Ki [3] | IC50 [4] | Ki [4] | IC50 [5] | Ki [5] | IC50 [6] | Ki [6] | IC50 [7] | Ki [7] | IC50 [8] | Ki [8] | IC50 [9] | Ki [9]

LIPOPOLYSACCHARIDE E. COLI O55:B5
Not Active: IC50 [1] | Ki [1] | IC50 [2] | Ki [2] | IC50 [3] | Ki [3] | IC50 [4] | Ki [4] | IC50 [5] | Ki [5] | IC50 [6] | Ki [6] | IC50 [7] | Ki [7] | IC50 [8] | Ki [8] | IC50 [9] | Ki [9]
